Source: patent publication US20230295152A1 (SENDA BIOSCIENCES, INC., priority 2019, published 2023)
Like-named read-outs stand apart in the source and are kept apart here.

What was measured:
[1] = tested on: CYP1A1 mRNA levels in HT26; test: CYP1A1 Gene Expression Assay, mouse CRC cell line HT26; assay type: cell-based; conditions: for IC50: Mus musculus; for Mouse CYP1A1 % eff: efficacy given with the IC50
Procedure: Human and mouse colorectal cancer (CRC) cell lines, HT29 and HT26 respectively, American Type Culture Collection (ATCC) are plated in a sterile tissue culture treated 96-well plate (ThermoFisher) at 8.0×10^5 cells per well, and grown overnight at 37° C., 5% CO2 in DMEM complete (Gibco) in order to achieve confluence. After the incubation medium is aspirated off the cell monolayers, tissues are then washed with 200 μL of warmed PBS solution, and subsequently 190 μL of pre-warmed growth medium is added to each well. AhR antagonist of interest are diluted at a 20×concentration in growth medium containing 2% DMSO, and 10 μL of compound solutions are added to respective wells in triplicate. After 1 hr, AHR activating ligand, such as TCDD, kynurenine, ITE (2-(1H-indole-3-ylcarbonyl)-4-thiazolecarboxylic methyl ester), VAF347, BNF (beta-naphthoflavone), FICZ (6-formylindolo(3,2-b) carbazole or other AHR ligands, is added with or without AHR antagonist for 24 hours, after which media will be removed and stored at −80 C for later cytokine analysis. At the end of the incubation, medium is aspirated off the CRC cells, and the cells washed with 100 μL of cold PBS solution. RNA is extracted via the TaqMan™ Gene Expression Cells-to-CT™ Kit (ThermoFisher) according to the manufacturer's protocol. The QuantStudio 6 Flex (Applied Biosciences) is used to analyze mRNA levels of CYP1A1 using GAPDH as the endogenous control. TaqMan™ probe sets for both genes are acquired from ThermoFisher. Samples are run in triplicate and data is analyzed using the QuantStudio software and reported as linear and log 2(ΔΔCT) values. Statistical analysis is performed using a two-tailed t-test comparing CYP1A1 levels in the presence of each individual compound to the vehicle negative control. […] This assay can be used to confirm the inhibitory effect of the compounds prior to testing using an in vivo model.

[2] = In vivo PK study in male CD1 mice; conditions: for AUC(0-t): read-out: AUCLast Mean
Procedure: The studies were conducted in male Sprague Dawley rats, three rats per group, or male CD1 mice, three mice per group. Compounds were dosed 1.0 mg/Kg i.v. (vehicle ethanol: % PEG400 in deionized water, in proportions suitable for dosing a clear solution) and 3.0 mg/kg or 10 mg/kg p.o. (vehicle: 1% methyl cellulose: 1,500 cP in DI water (w/v)). A11 animals had free access to food and water. Rat i.v. PK time points: Plasma: 0.083, 0.25, 0.5, 1, 2, 4, 8 and 24 h; Rat p.o. PK time points: Plasma: 0.25, 0.5, 1, 2, 4, 8 and 24 h. Mouse i.v. PK time points: Plasma: 0.083, 0.25, 0.5, 1, 2, 4, 8, 24, and 48 h; Mouse p.o. PK time points: Plasma: 0.25, 0.5, 1, 2, 4, 8, 24, and 48 h. Concentrations of compound in the plasma samples were analyzed using a LC-MS/MS method. WinNonlin (Phoenix™, version 6.1) or other similar software was used for pharmacokinetic calculations.

[3] = CT26 syngeneic colon cancer model, AhR antagonist with PD-L1 antibody; assay type: in vivo; conditions: female, Balb/c, mouse, in vivo, po; CT26 model, dose 10 mg/kg
[4] = tested on: CT26 cells implanted subcutaneously into Balb/c mice; test: as above; assay type: in vivo; conditions: for Cmin: CT26 model, dose 10 mg/kg
[5] = male, CD1, mouse, plasma, mice, 1 mg/kg IV
[6] = male, CD1, mouse, plasma, mice, 1 mg/kg IV, read-out: T1/2 Mean (converted)
[7] = male, CD1, mouse, plasma, mice, 10 mg/kg PO
[8] = male, CD1, mouse, plasma, mice, 10 mg/kg PO, read-out: Bioavailability

Question: What does the source list for `CC(C)(O)Cn1cnc2c(-c3cccnc3)nc(-c3ccc(C(F)(F)F)nc3)cc2c1=O` [Compound 9]?
Answer: IC50 [1]: 2.7 nM; Mouse CYP1A1 % eff [1]: ~55%; Mouse CL (% Qh) ([2]; in vivo DMPK profile, mouse): 3.85 % Qh; AUC(0-t) [2, 5]: 4880 ng·h/mL; half-life [2, 6]: 322 min; Cmax [2, 7]: 1470 ng/mL; Tmax [2, 7]: 5.67 h; AUC(0-inf) ([2]; male, CD1, mouse, plasma, mice, 10 mg/kg PO, read-out: AUCInf Mean): 34200 ng·h/mL; bioavailability [2, 8]: 70.3%; clearance ([2]; male, CD1, plasma, intravenous, 1 mg/kg, in vivo DMPK profile, mouse, read-out: Mouse CL): 3.4 mL/min/kg; half-life ([2]; male, CD1, plasma, intravenous, 1 mg/kg, in vivo DMPK profile, mouse, read-out: Mouse T1/2 (converted)): 324 min; Vd ([2]; male, CD1, plasma, intravenous, 1 mg/kg, in vivo DMPK profile, mouse, read-out: Mouse Vss): 1.9 L/kg; bioavailability ([2]; male, CD1, plasma, oral, 10 mg/kg, in vivo DMPK profile, mouse, read-out: Mouse % F): 70.3%; CI Mean ([2]; mice, 1 mg/kg IV): 3.42 L/h/kg; Cmax [3]: 4.96 µM; tumor volume and weight, combination with PD-L1 compared to PD-L1 alone (overall) ([4]; 10 mg/kg or 1 mg/kg p.o. once a day over 14 days with anti-PD-L1 antibody 10 mg/kg IP every 3 days): decreases tumor volume and weight compared to PD-L1 alone; Cmin [4]: 849 nm; tumor volume, coadministration with PD-L1 antibody ([4]; FIG. 8, 10 mg/kg p.o. once a day over 14 days with anti-PD-L1 antibody 10 mg/kg IP every 3 days, p=0.0070 (Mann-Whitney)): reduction in tumor volume; tumor weight upon termination of study, coadministration with PD-L1 antibody ([4]; FIG. 9, p.o. once a day over 14 days with anti-PD-L1 antibody 10 mg/kg IP every 3 days, p=0.0114 (Mann-Whitney)): reduction in tumor weight; tumor volume, coadministration with PD-L1 antibody ([4]; FIG. 10, 1 mg/kg p.o. once a day over 14 days with anti-PD-L1 antibody 10 mg/kg IP every 3 days, p=0.0039 (Kruskal Wallis, Dunn's)): reduction in tumor volume; tumor weight upon termination of study, coadministration with PD-L1 antibody ([4]; FIG. 11, p.o. once a day over 14 days with anti-PD-L1 antibody 10 mg/kg IP every 3 days, p=0.0029 (Kruskal Wallis, Dunn's)): reduction in tumor weight

Question: Which IC50 [1] does the source give for `C[C@H](n1cnc2c(-c3cnn(C)c3)nc(-c3ccc(Cl)cc3)cc2c1=O)C(C)(C)O` [Compound 30] here?
Answer: The IC50 was 2.9 nM.

Question: And the “Mouse CYP1A1 % eff” value [1]?
Answer: Its value is ~56%.

Question: And the C0 [2, 5]?
Answer: Its C0 is 457 ng/mL.

Question: What about the AUC(0-t) [2, 5] of the same molecule?
Answer: Its AUC(0-t) is 6380 ng·h/mL.

Question: And the half-life [2, 6]?
Answer: Its half-life is 516 min.

Question: What about the Cmax [2, 7] of the same molecule?
Answer: The Cmax was 2160 ng/mL.

Question: What about the Tmax [2, 7] of the same molecule?
Answer: Its Tmax is 8 h.

Question: And the AUC(0-t) [2, 7]?
Answer: The AUC(0-t) was 72800 ng·h/mL.

Question: And the bioavailability [2, 8]?
Answer: Its bioavailability is 114%.

Question: What about the “CI Mean” value ([2]; mice, 1 mg/kg IV) of the same molecule?
Answer: Its value is 2.6 L/h/kg.

Question: What about the Cmax [3] of the same molecule?
Answer: Its Cmax is 5.88 µM.

Question: What about the Cmin [4] of the same molecule?
Answer: The Cmin was 1,725 nm.

Question: And the “tumor volume, coadministration with PD-L1 antibody” value ([4]; FIG. 4, 10 mg/kg p.o. once a day over 14 days with anti-PD-L1 antibody 10 mg/kg IP every 3 days, p=0.039 (Mann-Whitney))?
Answer: Its value is “reduction in tumor volume”.

Question: What about the “tumor weight upon termination of study, coadministration with PD-L1 antibody” value ([4]; FIG. 5, 10 mg/kg p.o. once a day over 14 days with anti-PD-L1 antibody 10 mg/kg IP every 3 days, p=0.067 (Mann-Whitney)) of the same molecule?
Answer: The value was “reduction in tumor weight”.

Question: And the “tumor volume, coadministration with PD-L1 antibody” value ([4]; FIG. 6, 10 mg/kg p.o. once a day over 14 days with anti-PD-L1 antibody 10 mg/kg IP every 3 days, p=0.350 (Kruskal Wallis, Dunn's))?
Answer: The value was “reduction in tumor volume”.

Question: What about the “tumor weight upon termination of study, coadministration with PD-L1 antibody” value ([4]; FIG. 7, 10 mg/kg p.o. once a day over 14 days with anti-PD-L1 antibody 10 mg/kg IP every 3 days, p=0.0004 (Kruskal Wallis, Dunn's)) of the same molecule?
Answer: Its value is “reduction in tumor weight”.
